Laboratory results reported in patent publication US20220143210A1, “HYDROGEL COMPOSITIONS AND METHODS FOR TREATEMENT OF MALIGNANCIES” (Fred Hutchinson Cancer Research Center, priority 2019, published 2022).
“Also recorded” adds a separate entry of the source.

B1: IFNg: M1-polarizing agent (protein, UniProt P01579 24-161, looked up)
Interferon gamma: QDPYVKEAENLKKYFNAGHSDVADNGTLFLGILKNWKEESDRKIMQSQIVSFYFKLFKNFKDDQSIQKSVETIKEDMNVKFFNSNKKKRDDFEKLTNYSVTDLNVQRKAIHELIQVMAELSPAAKTGKRKRSQMLFRG

Columns and labels:
[1] = tested on: GFP+ HGG cells in a 1:1 co-culture with murine macrophages; format: cell-based, human PDX tumor cells, murine macrophages (C57/B6 mouse); settings: single agent; macrophage species not specified
Experimental: All chemokines were purchased from Sigma-Aldrich. LEAF hCD47 mAb was purchased from eBioscience (cat number, B6H12 clone). Primary murine macrophages were derived from bone marrow of a C57/B6 mouse. Bone marrow derived mononuclear progenitors were cultured in RPMI with CSF-1 for 3 days before freezing/use in assays. Patient-derived xenograft (PDX) were obtained from autopsy or biopsy. PDX lines were cultured in Neuralcult Serum Free (Stem cell tech) with Neuralcult supplement (cat no), 100 U ml-1 PenStrep, Glutamax, EGF and FGF. Cells were grown adherent on tissue-culture treated plates after at least 2 hours of Laminin coating (Sigma-aldrich) in an incubator at 37° C. in 5% CO2. All PDX lines were transduced with H2b-GFP and Luciferase to assist in cell counting and tumor size visualization via IVIS. Xenograft tumors were established in the cortex of female athymic mice nu/nu (Harlan) mice. Tumors were allowed to grow to an IVIS threshold before study enrollment. All mouse studies were carried out following protocols approved by the IACUC at FHCRC (protocol 1457) and complied with all relevant ethical regulations.
Phagocytosis assays were performed using the Basic Analyzer software on Essen Bio's Incucyte Zoom 2016 and S3. […] Using the aforementioned definitions, the Incucyte calculated the reduction of GFP+ nuclei in the wells over time in response to those factors. […]

[2] = tested on: GFP+ PDX brain tumor cells (HGG); assay: In vitro chemotaxis (transwell, Incucyte) assay; format: cell-based, human; settings: for chemotaxis / migration of PDX brain tumor cells: chemokine gradient, transwell
Experimental: Cell migration assays were performed using the Chemotaxis software on Essen Bio's Incucyte Zoom 2016 and S3. Specialized 96 well transwell plates were supplied by Essen Bio. GFP+ PDX cells were cultured in the aforementioned Neuralcult media without EGF/FGF supplementation. The Incucyte software definitions were trained to identify GFP+ rounded objects spanning the range of healthy nuclei found in my cultures.
It has been hypothesized that it is possible to exploit the migratory behavior of high grade brain tumors by employing chemokine gradients to attract them out of inoperable locations and into a location within the brain that maximizes their exposure to opsonin and macrophages. […] Flow analysis confirms the expression of the requisite chemokine receptors on the HGG line used in our chemotaxis assay, as shown in FIGS. 2A-2C.

[3] = administered intravenously, clinically; cited from earlier work

Row | Molecule | effects on the tumor cells in co-culture [1] | chemotaxis / migration of PDX brain tumor cells [2] | also measured
1 | CCOCc1nc2c(N)nc3ccccc3c2n1CC(C)(C)O [R848, reference compound] | mild effects | – | –
2 | CCL2: classical immune cell chemokine, purchased from Sigma-Aldrich | – | induced varying degrees of chemotaxis; also recorded: effective at eliciting chemotaxis; also recorded: effective at eliciting migration | relative chemotactic potency across PDX lines ([2]; across all lines tested): most potency across all lines tested
3 | CXCL8: classical immune cell chemokine, purchased from Sigma-Aldrich | – | induced varying degrees of chemotaxis; also recorded: effective at eliciting migration | –
4 | CXCL12: classical immune cell chemokine, purchased from Sigma-Aldrich | – | induced varying degrees of chemotaxis; also recorded: effective at eliciting migration | –
5 | IFNg: M1-polarizing agent | mild effects | – | –
6 | B1 | – | – | systemic toxicity [3]: dramatic systemic toxicity
